Measurements: patent US8486996B2, “Aroylfuranes and aroylthiophenes” (Basilea Pharmaceutica AG, priority 2006, dated 2013)
Where two headings read alike, the source gives them in different places.

How the values were obtained:
tumor cells [1] = assay: MTS proliferation assay (72 h read-out); type: cell-based
Procedure, shortened: (§1)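 Viability was read by MTS absorbance at 492 nm after 3 h with reagent. Before that, cells plated a day earlier at 1.5×10^3–10^4 per well had been incubated with test compound at final concentrations of 0.001–10 μM for 72 h; activity is given as category scores A–D.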

[2] = MTS proliferation assay (72 h read-out); type: cell-based; settings: MRC5 cells
Procedure, shortened: as §1

H460 = assay: Colony Forming Units (read-out 6 days), H460; type: cell-based, human; settings: colonies containing more than 30 cells, read-out: Colony Forming Units, score based on IC50, H460
Procedure: (§2) Appropriate numbers of cells (100-150 cells, dependent on the cell type) are being seeded out in 1 ml complete medium into 6-well plates and allowed to attach for 48 h. The compounds are added after 48 h in 500 μl solution. The concentrations are in the range of 0.001 μM-3 μM. Control plates receive the same volume of medium containing the appropriate amount of DMSO. The plates are incubated for 5-7 days at cell culture conditions and subsequently scored for growth of colonies (containing more than 30 cells) by using a microscope.

tumor cells [3] = assay: Mitochondrial membrane potential, JC-1 (read-out 48 h); type: cell-based; settings: JC-1, 48 h
Procedure, shortened: (§3)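 Tumor cells were treated with test compounds (adherent cells after 24 h of attachment, suspension cells immediately), medium holding up to 5% DMSO. After 48 h, JC-1 (2-5 μg/ml in added medium) was applied for 30 min. Fluorescence microscopy (FITC/TRITC filters) scored the fraction of cells with dissipated mitochondrial membrane potential as categories A-D.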

[4] = as above; type: cell-based; settings: PBL, JC-1, 48 h
Procedure, shortened: as §3

tumor cells [5] = assay: Hoechst 33342 nuclear staining (48 h read-out); type: cell-based
Procedure, shortened: (§4)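 Adherent cells pre-spread 24 h before dosing, suspension cells dosed at seeding; compounds at 0.001 μM-10 μM final, 48 h at culture conditions. Hoechst 33342 (2-5 μg/ml) added for 30 min, then fluorescence microscopy scoring of apoptotic nuclear fraction and apoptosis-specific morphology, reported as scores A-D.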

[6] = Hoechst 33342 nuclear staining (48 h read-out); type: cell-based
Procedure, shortened: as §4

HeLa = assay: Colony Forming Units (read-out 6 days), HeLa; type: cell-based, human; settings: colonies containing more than 30 cells, read-out: Colony Forming Units, score based on IC50, HeLa
Procedure: as §2

[7] = Homo sapiens, HT-1080, HT1080 cells, read-out: MTS proliferation assay IC50, HT1080
[8] = Homo sapiens, HeLa cells, read-out: MTS proliferation assay IC50, HeLa
[9] = Homo sapiens, Jurkat cells, read-out: MTS proliferation assay IC50, Jurkat
[10] = Jily cells, read-out: MTS proliferation assay IC50, Jily
[11] = Homo sapiens, HeLa cells, read-out: Mitochondrial membrane potential (read-out 48 h) HeLa
[12] = Homo sapiens, Jurkat cells, read-out: Mitochondrial membrane potential (read-out 48 h) Jurkat
[13] = Homo sapiens, MCF7 cells, read-out: Mitochondrial membrane potential (read-out 48 h) MCF7
[14] = Jily cells, read-out: Mitochondrial membrane potential (read-out 48 h) Jily
[15] = Homo sapiens, HeLa cells, read-out: Hoechst 33342 nuclear staining EC50, HeLa
[16] = Homo sapiens, Jurkat cells, read-out: Hoechst 33342 nuclear staining EC50, Jurkat
[17] = Jily cells, read-out: Hoechst 33342 nuclear staining EC50, Jily
[18] = Homo sapiens, MRC5 cells, read-out: Hoechst 33342 nuclear staining EC50, MRC5
[19] = PBL, read-out: Hoechst 33342 nuclear staining EC50, PBL
[20] = HT1080 cells, read-out: MTS proliferation assay IC50, HT1080
[21] = HeLa cells, read-out: MTS proliferation assay IC50, HeLa
[22] = Jurkat cells, read-out: MTS proliferation assay IC50, Jurkat
[23] = HeLa cells, read-out: Mitochondrial membrane potential (read-out 48 h) HeLa
[24] = Jurkat cells, read-out: Mitochondrial membrane potential (read-out 48 h) Jurkat
[25] = MCF7 cells, read-out: Mitochondrial membrane potential (read-out 48 h) MCF7
[26] = HeLa cells, read-out: Hoechst 33342 nuclear staining EC50, HeLa
[27] = Jurkat cells, read-out: Hoechst 33342 nuclear staining EC50, Jurkat
[28] = MRC5 cells, read-out: Hoechst 33342 nuclear staining EC50, MRC5

| IC50 (tumor cells [1]; [7]) [µM] | IC50 (tumor cells [1]; [8]) [µM] | IC50 (tumor cells [1]; [9]) [µM] | IC50 (tumor cells [1]; [10]) [µM] | IC50 (H460; Homo sapiens, NCI-H460, 144 h) [µM] | EC50 (tumor cells [3]; [11]) [µM] | EC50 (tumor cells [3]; [12]) [µM] | EC50 (tumor cells [3]; [13]) [µM] | EC50 (tumor cells [3]; [14]) [µM] | EC50 [4] [µM] | EC50 (tumor cells [5]; [15]) [µM] | EC50 (tumor cells [5]; [16]) [µM] | EC50 (tumor cells [5]; [17]) [µM] | EC50 [6, 19] [µM] | IC50 (HeLa; Homo sapiens, 144 h) [µM] | IC50 (tumor cells [1]; [20]) [µM] | IC50 (tumor cells [1]; [21]) [µM] | IC50 (tumor cells [1]; [22]) [µM] | SMILES | IC50 ([2]; Homo sapiens) [µM] | EC50 [6, 18] [µM] | also measured |
| --- | --- | --- | --- | --- | --- | --- | --- | --- | --- | --- | --- | --- | --- | --- | --- | --- | --- | --- | --- | --- | --- |
| 0.01 to 0.1 | 0.01 to 0.1 | < 0.01 | 0.01 to 0.1 | 0.01 to 0.1 | 0.01 to 0.1 | < 0.01 | 0.1 to 1 | 0.01 to 0.1 | > 1 | 0.01 to 0.1 | < 0.01 | 0.01 to 0.1 | > 1 | 0.01 to 0.1 |  |  |  | CCOc1ccccc1C(=O)c1oc2ccc(Cl)cc2c1N [Example 2, 3-Amino-5-chloro-2-(2-ethoxybenzoyl)-benzofuran] | 0.01 to 0.1 | 0.01 to 0.1 |  |
| < 0.01 | < 0.01 | < 0.01 | < 0.01 | < 0.01 | < 0.01 | < 0.01 | 0.01 to 0.1 | < 0.01 | > 1 | < 0.01 | < 0.01 | < 0.01 | > 1 | < 0.01 |  |  |  | CCOc1ccc([N+](=O)[O-])cc1C(=O)c1oc2ccc(Cl)cc2c1N [Example 3, 3-Amino-5-chloro-2-(2-ethoxy-5-nitrobezoyl)-benzofuran] | < 0.01 | < 0.01 |  |
|  |  |  |  | 0.01 to 0.1 | 0.01 to 0.1 | 0.01 to 0.1 | 0.01 to 0.1 | 0.01 to 0.1 | > 1 | 0.01 to 0.1 | 0.01 to 0.1 | 0.01 to 0.1 | > 1 | 0.01 to 0.1 |  |  |  | C=CCOc1ccc(OC)cc1C(=O)c1oc2ccc(Cl)cc2c1N [Example 4, 3-Amino-5-chloro-2-(2-allyloxy-5-methoxybenzoyl)-benzofuran] |  | 0.01 to 0.1 |  |
|  |  |  | 0.1 to 1 |  |  |  |  | 0.1 to 1 | > 1 |  |  | 0.1 to 1 | > 1 |  | > 1 | 0.1 to 1 | 0.1 to 1 | COCCOc1ccccc1C(=O)c1oc2ccc(Cl)cc2c1N [Example 6] |  |  | IC50 [2]: > 1 µM; IC50 (H460): 0.1 to 1 µM; EC50 (tumor cells [3]; [23]): 0.1 to 1 µM; EC50 (tumor cells [3]; [24]): 0.1 to 1 µM; EC50 (tumor cells [3]; [25]): 0.1 to 1 µM; EC50 (tumor cells [5]; [26]): 0.1 to 1 µM; EC50 (tumor cells [5]; [27]): 0.1 to 1 µM; EC50 [6, 28]: > 1 µM; IC50 (HeLa): 0.1 to 1 µM |
|  |  |  | 0.01 to 0.1 |  |  |  |  | 0.1 to 1 | > 1 |  |  | 0.1 to 1 | > 1 |  | 0.1 to 1 | 0.1 to 1 | 0.01 to 0.1 | C#CCOc1ccccc1C(=O)c1oc2ccc(Cl)cc2c1N [Example 8] |  |  | IC50 [2]: 0.1 to 1 µM; IC50 (H460): 0.1 to 1 µM; EC50 (tumor cells [3]; [23]): 0.1 to 1 µM; EC50 (tumor cells [3]; [24]): 0.1 to 1 µM; EC50 (tumor cells [3]; [25]): 0.1 to 1 µM; EC50 (tumor cells [5]; [26]): 0.1 to 1 µM; EC50 (tumor cells [5]; [27]): 0.01 to 0.1 µM; EC50 [6, 28]: > 1 µM; IC50 (HeLa): 0.1 to 1 µM |
|  |  |  | 0.01 to 0.1 |  |  |  |  | 0.1 to 1 | > 1 |  |  | 0.1 to 1 |  |  | 0.1 to 1 | 0.1 to 1 | 0.01 to 0.1 | C#CCOc1ccc(OC)cc1C(=O)c1oc2ccc(Cl)cc2c1N [Example 13] |  |  | IC50 [2]: 0.1 to 1 µM; IC50 (H460): 0.1 to 1 µM; EC50 (tumor cells [3]; [23]): 0.1 to 1 µM; EC50 (tumor cells [3]; [24]): 0.1 to 1 µM; EC50 (tumor cells [3]; [25]): 0.1 to 1 µM; EC50 (tumor cells [5]; [26]): 0.1 to 1 µM; EC50 (tumor cells [5]; [27]): 0.1 to 1 µM; EC50 [6, 28]: 0.1 to 1 µM; IC50 (HeLa): 0.1 to 1 µM |
| 0.01 to 0.1 | 0.01 to 0.1 | < 0.01 | 0.01 to 0.1 | 0.01 to 0.1 | 0.1 to 1 | 0.01 to 0.1 | > 1 | 0.01 to 0.1 | > 1 | 0.01 to 0.1 | 0.01 to 0.1 | 0.01 to 0.1 | > 1 | 0.01 to 0.1 |  |  |  | Nc1c(C(=O)c2cccnc2N2CCOCC2)oc2ccc(Cl)cc12 [Example 37, 3-Amino-5-chloro-2-(2-morpholino-3-pyridylcarbonyl)-benzofuran] | 0.01 to 0.1 | > 1 |  |
